Data from patent publication US20080025970A1, “Treatment of atherosclerosis” (priority 2004, published 2008).

Experiments:
Type in all cases: cell-based
[1] = tested on: adhesion of highly activated U937 cells to HSP60; test: Adhesion of highly activated U937 cells to HSP60 coated wells; conditions: at the lowest concentration tested; FIG. 9
[2] = tested on: adhesion of monocytes to tissue sections of atherosclerotic plaque; test: Adhesion of monocytes to tissue sections of atherosclerotic plaque
[3] = tested on: adhesion of highly activated U937 cells to oxidised LDL; test: Adhesion of highly activated U937 cells (PMA plus vitamin A and vitamin D) to oxidised LDL; conditions: raft-disrupting agents; all concentrations tested; FIG. 5
Method: Plastic wells were coated with oxidised LDL, or fibronectin 10 μg/ml for 16 hrs at 4° C., and washed. Monocytes were isolated in an unactivated state from one unit of buffy coat cells by the method of Tsouknos et al^26, labelled with carboxyfluorescein for 30 mins, and washed. Inhibitors and control Ig UPC10 were added to the plates in 50 μL, and then 50 μL of cells at a final concentration of 3×10^6/ml in the assay. The plates were incubated at 37° C. for 1 hr. Non-adherent cells were removed by a standardised washing procedure, and after addition of cell suspension to 3 wells as the 100% control, the plates were measured in an automatic fluorescent spectrophotometer.
U937 cells were stimulated with PMA 10 ng/ml, plus vitamin A (1 ug/ml) and vitamin D (10^-7 M) for 16 hours, and then the assay was performed as in Example 3.
U937 cells were stimulated as in Example 5, and the experiment performed as in Example 3. The results are shown in FIG. 6, with the legend as in the previous figures. CD14, CD18, TLR-4 antibodies were all murine Igs. MOPC21:—control murine IgG1, UPC10:—control murine IgG2a.

Row | Compound | inhibition of binding of highly activated U937 cells to HSP60 [1] | inhibition of adhesion of monocytes to tissue sections of atherosclerotic plaque [2] | inhibition of activated U937 cell adhesion to oxidised LDL [3]
1 | C[S+](C)[O-] [DMSO, Dimethylsulphoxide] | highly inhibitory | inhibits adhesion | 
2 | C[C@@H]1[C@H](O)[C@@H](C)/C=C/C=C/CC/C=C/C=C/C=C/C=C/C(O[C@H]2O[C@H](C)[C@@H](O)[C@H](N)[C@@H]2O)CC2O[C@](O)(CC(O)C(O)CCC(O)CC(O)CC(O)CC(=O)O[C@H]1C)CC(O)C2C(=O)O (stereo partly shown) [nystatin] |  |  | near-total inhibition
3 | methyl cyclodextrin |  |  | near-total inhibition
